Experimental data published in the COVID Moonshot data (paper PMC11187573), “Identification of SARS-CoV-2 Mpro inhibitors through deep reinforcement learning for de novo drug design and computational chemistry approaches” (RSC Medicinal Chemistry, 2024).

Target: SARS-CoV-2 Main Protease (SARS-CoV-2) (UniProt P0DTD1)

Compound `COc1ccc2c(=O)c(O)c(-c3ccc(OCc4ccccc4)c(OCc4ccccc4)c3)oc2c1` has an inhibition (50.0 µM) of 14.1%.

Work on `O=C(Cc1cc(Cl)cc(Cc2ccn[nH]2)c1)Nc1cncc2ccccc12` yielded an IC50 of 9.39 µM.

Work on `CN(C)c1ccc(N(Cc2ccccc2)C(=O)Cn2nnc3ccccc32)cc1` yielded an IC50 of 1.57 µM.

`COc1ccc(N(Cc2cccc(Cl)c2)C(=O)Cn2nnc3ccccc32)cc1` gave an IC50 of 5.65 µM.

`O=C(Nc1cncc2ccccc12)[C@@H]1COc2ccc(Cl)cc2C1` (stereo in doubt) showed an IC50 of 3.56 µM.

With `N#Cc1ccccc1NC(=O)[C@@H](c1ccccc1)N1Cc2ccccc2C1=O` (stereo in doubt) the IC50 was 57.9 µM.

`Cc1oncc1C(=O)Nc1ccc(S(F)(F)(F)(F)F)cc1` showed an inhibition (50.0 µM) of 0%.

Work on `COc1cc2c(c3ccccc13)OC(C)(C)CC2Oc1cc2c(cc1C)C(=O)c1ccccc1C2=O` (stereo unspecified) yielded an inhibition (50.0 µM) of 4%.

`Cc1cc(O)c2c(c1)C1(O)CC(C2=O)C2=C1C(=O)c1c(O)cccc1C2=O` (stereo unspecified) showed an IC50 of 58.2 µM and an inhibition (50.0 µM) of 81.1%.

`O=C(Cn1nnc2ccccc21)N(Cc1ccsc1)c1ccc(N2CCOCC2)cc1` showed an IC50 of 21.3 µM.

Compound `O=C(Nc1c[nH]c(=O)c2ccccc12)C1CCOc2ccc(Cl)cc21` (stereo unspecified) has an IC50 of 83.7 µM.

Work on `O=C(Cc1cncc2ccccc12)N(CCC1CCCCC1)c1cccc(Cl)c1` yielded an IC50 of 1.02 µM.

With `O=C(Cc1cccc(Cl)c1)Nc1cccc2[nH]ncc12` the IC50 was 23.6 µM.

For `Cc1ccc(N(Cc2cscn2)C(=O)Cc2cncc3ccccc23)cc1`, the IC50 was 13.6 µM.

With `O=C(c1cc(=O)cc[nH]1)N1CCN(c2cccc(Cl)c2)CC1` the IC50 was 58.9 µM.

In the case of `Cc1ccncc1NC(=O)Cc1cc(Cl)cc(NC2CCC(F)(F)C2O)c1` (stereo unspecified), the IC50 is reported as 25.7 µM.

Compound `O=C(c1cc(=O)[nH]c2ccccc12)N1CCN(c2cccc(Cl)c2)C(=O)C1` has an IC50 of 9.61 µM.

`O=C(Cc1cccc(Cl)c1)N[C@H]1CCNC1=O` (stereo in doubt) showed an inhibition (50.0 µM) of 0%.

`CC12CCCC(O1)c1c(cc3c(c1O)C(=O)c1c(O)cc(O)cc1C3=O)O2` (stereo unspecified) was tested, and the inhibition (50.0 µM) was 26.4%.

`Cc1ccncc1NC(=O)C(C)c1cc(Cl)cc(OC2CC(=O)N2)c1` (stereo unspecified) was tested, and the IC50 was 88.1 µM.

`Cc1ccncc1NC(=O)Cc1cc(Cl)cc(NC2CC2C(F)(F)F)c1` (stereo unspecified) gave an IC50 of 19.7 µM.

For `CC(=O)N1CCN(Cc2cccs2)CC1`, the inhibition (20.0 µM) was 96.7% and the inhibition (50.0 µM) was 95.7%.

`COc1cccc(C2=N/C(=C/c3sccc3C)C(=O)O2)c1` gave an IC50 of 5.07 µM and an inhibition (50.0 µM) of 77.6%.

With `O=C(Cc1cncc2ccccc12)Nc1cc(Cl)cc(OC2CCC(=O)N2)c1` (stereo unspecified) the IC50 was 19.4 µM.

`C=C1CCC[C@H]2[C@](C)(CC3=C(O)C(=O)C=C(OC)C3=O)[C@@H](C)CC[C@]12C` (stereo in doubt) was tested, and the inhibition (50.0 µM) was 2.35%.

`CCCCOc1ccc(Cl)cc1CC(=O)Nc1cnccc1C` was tested, and the IC50 was 15.7 µM.

`O=C(Nc1cncc2ccccc12)C1=CCCc2ccc(Cl)cc21` gave an IC50 of 0.0811 µM.

With `Cc1cc(C(=O)CCl)c(C)n1CC1COc2ccccc2O1` (stereo unspecified) the IC50 was 4.15 µM and the inhibition (50.0 µM) was 82.2%.

`Cc1ccncc1NC(=O)Cc1cc(Cl)cc(-c2ccc(S(C)(=O)=O)cc2Cl)c1` gave an IC50 of 19.5 µM.

With `O=C(c1cc(=O)[nH]c2ccccc12)N1CCN(c2cccc(Cl)c2)CC1` the IC50 was 2.19 µM and the inhibition (50.0 µM) was 65.7%.

In the case of `CC[P](CC)(CC)=[Au][S][C@@H]1O[C@H](COC(C)=O)[C@@H](OC(C)=O)[C@H](OC(C)=O)[C@H]1OC(C)=O` (stereo in doubt), the inhibition (50.0 µM) is reported as 100%.

`CC(C)(C)N1C=CN(C(C)(C)C)[CH]1[Au][Cl]` gave an IC50 of 0.117 µM and an inhibition (50.0 µM) of 100%.

For `Cc1ccncc1NC(=O)Cc1cc(Cl)cc(OCCN2CCOCC2C)c1` (stereo unspecified), the inhibition (50.0 µM) was 23.9%.

Work on `C[C@H]1C[C@@H](C(=O)Nc2cncc3ccccc23)c2cc(Cl)ccc2O1` (stereo in doubt) yielded an IC50 of 45.4 µM.

For `O=C(Cn1nnc2ccccc21)N(Cc1cccc(Cl)c1)c1ccc(N2CCOCC2)cc1`, the IC50 was 3.79 µM.

In the case of `OC[C@H]1O[C@H]([S][Au])[C@H](O)[C@@H](O)[C@@H]1O` (stereo in doubt), the inhibition (50.0 µM) is reported as 83.1%.

Compound `Cc1ccncc1NC(=O)Cc1cc(Cl)cc(OCc2n[nH]c3ccccc23)c1` has an inhibition (50.0 µM) of 9.6%.

Compound `Cc1ccncc1NC(=O)Cc1cc(Cl)cc(/C=C(/c2ccccc2)C(F)(F)F)c1` has an IC50 of 15.3 µM.

`O=C(Cn1nnc2ccccc21)Nc1cccc(Cl)c1` showed an IC50 of 29.4 µM and an inhibition (50.0 µM) of 55.1%.

Compound `CCc1cc(F)ccc1-c1cc(Cl)cc(CC(=O)Nc2cnccc2C)c1` has an IC50 of 26 µM.

`COc1cc(Cl)cc2c1OCC[C@@H]2C(=O)Nc1cncc2ccccc12` (stereo in doubt) gave an IC50 of 10.2 µM.

Compound `CC(=O)NCc1cc(Cl)cc(CC(=O)Nc2cnccc2C)c1` has an IC50 of 55.5 µM.

Compound `C=CC(=O)N(c1ccc(I)cc1)C(C(=O)Nc1ccc(Cl)cc1)c1cncnc1` (stereo unspecified) has an IC50 of 2.75 µM.

With `O=C(Nc1ccccc1)[C@@H](c1ccccc1)N1Cc2ccccc2C1=O` (stereo in doubt) the IC50 was 99.8 µM.

`CC(C)(C)c1ccc(N(C(=O)c2ccco2)[C@@H](C(=O)NCCc2cccc(F)c2)c2cccnc2)cc1` gave an inhibition (50.0 µM) of 100%.

For `O=C(c1cc(=O)[nH]c2ccccc12)N1CCN(Cc2cccc(C(F)(F)F)c2)CC1`, the inhibition (50.0 µM) was 24.8%.

In the case of `O=C(NCC1=[SH]C=CC1)[C@@H](c1ccccc1)N1Cc2ccccc2C1=O` (stereo in doubt), the IC50 is reported as 82 µM.

Compound `Cc1ccc(N(Cc2cccc(Cl)c2)C(=O)Cn2nnc3ccccc32)cc1` has an IC50 of 3.3 µM.

With `O=C(Cc1cccc(Cl)c1)Nc1cnccc1C1CC1` the IC50 was 7.4 µM.

`Cc1ccncc1NC(=O)C(CO)c1cccc(Cl)c1` (stereo unspecified) was tested, and the IC50 was 47.3 µM.

`O=C(Cc1cccc(Cl)c1)Nn1nnc2ccccc21` showed an IC50 of 31 µM.

Compound `CCN(c1ccccc1)S(=O)(=O)c1ccc(OC)c(NC(=O)CCl)c1` has an IC50 of 6.96 µM and an inhibition (50.0 µM) of 61.2%.

With `CCC(=O)Nc1ccc(N(Cc2ccccc2)C(=O)Nn2nnc3ccccc32)cc1` the IC50 was 3.73 µM.
